# Experiments:
# [1] = system: Schwann cells; conditions: cited from earlier work
# [2] = system: HCT116 cells; experiment: Cas9-expressing HCT116 cell viability; format: cell-based
# Description: To gain insight into the mechanism of 9 and the relevance of Nam, we pursued two independent and complementary unbiased genetic approaches. First, we performed a genome-wide pooled Clustered Regularly Interspaced Short Palindromic Repeats (CRISPR) and CRISPR-associated protein 9 (Cas9) knockout screen to identify genes whose loss of function can enhance or suppress compound 9 activity. […] We cultured Cas9-expressing HCT116 cells in 10% FBS Nam-free DMEM and transduced with a lentiviral single guide RNA (sgRNA) library designed to silence 19,114 human genes.^11 These cells were treated with either vehicle (DMSO) or 9 for 30 days by which time the 9-treated cells had 7.6 fewer population doublings. Then, relative sgRNA sequences in the resulting cells were determined by massively parallel sequencing of PCR products amplified from genomic DNA, and the relative impact of each gene was derived from the sgRNA reads.
# These observations, taken together, support the hypothesis that the activity of compound 9 depends on NAMPT and NMNAT1.
# In 96-well assay plates (Corning #2903), 2,000 cells were plated per well in 100 μL of medium and allowed to adhere overnight. The next day, compounds or Nam suspended in DMSO were dispensed to the assayed wells using a D300e Digital Dispenser (Tecan). All wells were normalized to 0.5% DMSO. 72 hours after incubation at 37 °C in 5% CO2, cell viability was assayed using an ATP-based luminescent viability assay, CellTiter-Glo (Promega #G8462). CellTiter-Glo substrate was mixed 1:1 with phosphate-buffered saline (PBS) supplemented with 1% Triton X-100, and 40 μL of this mixture was added to the assay wells. After the plates were shaken on a microplate shaker for 10 minutes at room temperature, luminescence was recorded using a Synergy 2 Microplate Reader or Cytation 5 plate reader (BioTek). In Prism 9 software (GraphPad), ten-point dose response curves were plotted with baseline-correction to the vehicle control well, and IC50 values were calculated by curve fitting using asymmetric (five parameter), least squares fit.
# [3] = system: iHCT116 cells; experiment: Forward genetics resistance selection (IAA-inducible mutagenesis); format: cell-based
# Description: Second, we screened for resistance to 9 in iHCT116 cells, a system that uses inducible mutagenesis and forward genetics to find compound-resistant mutations and thus can reveal both loss of function and gain of function alleles that suppress activity. The iHCT116 system is a barcoded cell line in which we temporally control mutagenesis by the addition of indole acetic acid (IAA) mediated degradation of the mismatch repair protein MLH1.^12 MLN4924 is a small molecule toxin that we use as a positive control to verify that IAA treatment leads to increased mutations. By degrading MLH1 and increasing the overall mutation rate, IAA treatment increases the frequency of UBA3 mutations, leading to a higher rate of MLN4924 resistance. […] Having previously established a relationship between either NMNAT1 levels or NAMPT activity and compound resistance, we analyzed the levels of both enzymes in multiple resistant clones that harbored unique barcode sequences. […] To test whether reduced NMNAT1 levels in these clones contributed to resistance, we ectopically expressed NMNAT1 in either the parental cells or a representative resistant clone with low NMNAT1 expression.
# [4] = molecular target: T1, recombinant human inosine monophosphate dehydrogenase 2 (IMPDH2) (Homo sapiens, UniProt P12268); experiment: IMPDH2 enzyme assay with reaction extracts; format: biochemical; conditions: role: inhibitor; extract of overnight reaction of 9 with NAMPT and NMNAT added at 40% v/v; 500 uM NAD, 250 uM IMP
# T1 construct: NADH absorbance assay with extracts of NAMPT/NMNAT reactions
# Description: Given that vacor, 3-AP, and compound 21 are all metabolized to toxic, NAD-like derivatives through NAMPT and NMNAT, we hypothesized that their anti-cancer activity may also depend on SARM1. To test this, we compared the toxic effects of vacor, 3-AP, and 9 in either wild type cells or cells in which we used CRISPR to silence SARM1. […] These observations highlight that even though these different scaffolds are toxified through the same mechanism, the resulting metabolites may have different activities. We next co-titrated guanosine, which is known to rescue tiazofurin by bypassing IMPDH in guanylate synthesis, with each of the above small molecules. […] To test this hypothesis, we set up in vitro reactions with different combinations of 9, NAMPT and NMNAT. After incubation, metabolites were extracted, reconstituted in aqueous solution and then co-incubated with an established IMPDH2 enzyme assay.
# IMPDH activity was measured by monitoring NADH production through the change in absorbance at […] as previously described [PMID: 13428767]. […] Absorbance was measured every 30 seconds for 30 minutes on a BioTek Cytation 5 plate reader (Agilent, USA) at 37 °C. IMPDH2 activity was determined from the slope of absorbance vs. time plots. […]
# [5] = resistant clones with unique barcodes
SMILES,toxicity to Schwann cells [1],rescue by 100 μM Nam ([2]; 10% FBS Nam-free DMEM),"IC50 ([2]; Cas9-expressing HCT116, 10% FBS Nam-free DMEM)","average increase in IC50 on NMNAT1 knockout ([2]; HCT116, three independent NMNAT1 sgRNAs)","NAMPT levels in 9-resistant clones [3, 5]","NMNAT1 protein levels downregulated in 9-resistant clones [3, 5]",difference in number of surviving clones Mut-off vs Mut-on ([3]; three lethal selection concentrations of 9),inhibition of IMPDH activity [4]
"O=C(Nc1cccnc1)c1cccs1 [Compound 1, N-(pyridin-3-yl)thiophene-2-carboxamide]",nontoxic,–,–,–,–,–,–,–
"O=C(Nc1cccs1)c1cccnc1 [Compound 9, N-(Thiophen-2-yl)nicotinamide]",–,rescued by 100 μM Nam,20.8 nM,6.0 fold,the same in all clones,five out of eight clones,did not observe a substantial difference,substantial inhibition

# — patent publication US20260356803A1, “Nicotinamide derivatives” (Board of Regents, The University of Texas System, priority 2024, published 2026)
